Numbered stars: 1 amine (or outer) side, 2 acyl side, 3 side chain; on linkers, the order of the positions; unused ones are H or OH. Bridge positions count the residues as written; N and C are the ends. Square brackets hold non-standard residues; d marks the D form. Peptide text beside a SMILES is read from it. * marks the point of attachment. X2 = CN(/C(=C/c1ccc(O)cc1)C(=O)[*:2])[*:1]; aThr = C[C@H](O)[C@H](N)C(=O)O; X1 = CCCCCc1ccccc1CCC(=O)*
Tests used:
[1] = 20° C.; cited from earlier work
[2] = Solubility test of FR115224 substance in water with cyclodextrins; assay type: physicochemical; conditions: for Solubility of FR115224 substance: distilled water, room temperature
Method: FR115224 substance (125 mg) was charged in 13 sample bottles, respectively and distilled water (2.5 ml) was added thereto.
Then, α-cyclodextrin, β-cyclodextrin, hydroxypropyl β-cyclodextrin or γ-cyclodextrin was charged to each of the sample bottles in amounts of […] (cyclodextrin content: 0.16% w/v), 2.5 mg (cyclodextrin content: 1% w/v) or 12.5 mg (cyclodextrin content: 5% w/v), respectively. No cyclodextrin was charged in one sample bottle, which was made control. After stirring at room temperature for 12 hours, the concentration of FR115224 substance in each aqueous phase was measured to determine the solubility of FR115224 substance.

| Effect of cyclodextrin on the solubility of FR115224 substance in water ([2]; conclusion from Table 1) | Solubility of FR115224 substance ([2]; no cyclodextrin (0 % w/v, control), stirred 12 hours) [% w/v] | Solubility of FR115224 substance ([2]; hydroxypropyl β-cyclodextrin 0.16 % w/v, 12 hours) [% w/v] | Solubility of FR115224 substance ([2]; hydroxypropyl β-cyclodextrin 1 % w/v, 12 hours) [% w/v] | Solubility of FR115224 substance ([2]; hydroxypropyl β-cyclodextrin 5 % w/v, 12 hours) [% w/v] | Solubility of FR115224 substance ([2]; α-cyclodextrin 0.16 % w/v, 12 hours) [% w/v] | Solubility of FR115224 substance ([2]; α-cyclodextrin 1 % w/v, 12 hours) [% w/v] | Solubility of FR115224 substance ([2]; α-cyclodextrin 5 % w/v, 12 hours) [% w/v] | Solubility of FR115224 substance ([2]; β-cyclodextrin 0.16 % w/v, 12 hours) [% w/v] | Solubility of FR115224 substance ([2]; β-cyclodextrin 1 % w/v, 12 hours) [% w/v] | Solubility of FR115224 substance ([2]; β-cyclodextrin 5 % w/v, 12 hours) [% w/v] | Solubility of FR115224 substance ([2]; γ-cyclodextrin 0.16 % w/v, 12 hours) [% w/v] | Solubility of FR115224 substance ([2]; γ-cyclodextrin 1 % w/v, 12 hours) [% w/v] | Solubility of FR115224 substance ([2]; γ-cyclodextrin 5 % w/v, 12 hours) [% w/v] | Compound | Increase of water solubility by inclusion compound with β-cyclodextrin [1] |
| --- | --- | --- | --- | --- | --- | --- | --- | --- | --- | --- | --- | --- | --- | --- | --- |
|  |  |  |  |  |  |  |  |  |  |  |  |  |  | C(=C\c1ccccc1)/CN1CCN(C(c2ccccc2)c2ccccc2)CC1 [Cinnarizine] | about 5 times |
| markedly increase | 0.003 | 0.009 | 0.06 | 0.49 | 0.008 | 0.03 | 0.14 | 0.013 | 0.11 | 0.34 | 0.006 | 0.03 | 0.16 | CCCCCc1ccccc1CCC(=O)N[C@@H]1C(=O)N(C)/C(=C/c2ccc(O)cc2)C(=O)N[C@@H](CC(C)C)C(=O)N[C@H](Cc2ccccc2)C(=O)N[C@@H]([C@H](C)O)C(=O)N[C@@H](CC(N)=O)C(=O)N[C@@H](CO)C(=O)O[C@@H]1C [FR115224 substance] (X1-T[X2]L[dF][aThr]NS; ester 1-C) |  |
